In ChEMBL document CHEMBL6096661, “Synthesis, biological evaluation and mechanism study of a novel indole-pyridine chalcone derivative as antiproliferative agent against tumor cells through dual targeting tubulin and HK2” (Eur J Med Chem, 2025):
Calls of active or inactive are those of the source. No cut-off for these calls is given here.

Legend:
MDA-MB-231 [1] = test: Antiproliferative activity against human MDA-MB-231 cells assessed as inhibition of cell proliferation incubated for 1 day by CCK-8 assay; assay type: functional, cell-based; conditions: MDA-MB-231, 24 h
Hexokinase-2 = molecular target: T1, Hexokinase-2 (Homo sapiens, UniProt P52789); test: Inhibition of human HK2 transfected in Escherichia coli BL21 (DE) incubated for 10 mins
T1 sequence (P52789 whole entry): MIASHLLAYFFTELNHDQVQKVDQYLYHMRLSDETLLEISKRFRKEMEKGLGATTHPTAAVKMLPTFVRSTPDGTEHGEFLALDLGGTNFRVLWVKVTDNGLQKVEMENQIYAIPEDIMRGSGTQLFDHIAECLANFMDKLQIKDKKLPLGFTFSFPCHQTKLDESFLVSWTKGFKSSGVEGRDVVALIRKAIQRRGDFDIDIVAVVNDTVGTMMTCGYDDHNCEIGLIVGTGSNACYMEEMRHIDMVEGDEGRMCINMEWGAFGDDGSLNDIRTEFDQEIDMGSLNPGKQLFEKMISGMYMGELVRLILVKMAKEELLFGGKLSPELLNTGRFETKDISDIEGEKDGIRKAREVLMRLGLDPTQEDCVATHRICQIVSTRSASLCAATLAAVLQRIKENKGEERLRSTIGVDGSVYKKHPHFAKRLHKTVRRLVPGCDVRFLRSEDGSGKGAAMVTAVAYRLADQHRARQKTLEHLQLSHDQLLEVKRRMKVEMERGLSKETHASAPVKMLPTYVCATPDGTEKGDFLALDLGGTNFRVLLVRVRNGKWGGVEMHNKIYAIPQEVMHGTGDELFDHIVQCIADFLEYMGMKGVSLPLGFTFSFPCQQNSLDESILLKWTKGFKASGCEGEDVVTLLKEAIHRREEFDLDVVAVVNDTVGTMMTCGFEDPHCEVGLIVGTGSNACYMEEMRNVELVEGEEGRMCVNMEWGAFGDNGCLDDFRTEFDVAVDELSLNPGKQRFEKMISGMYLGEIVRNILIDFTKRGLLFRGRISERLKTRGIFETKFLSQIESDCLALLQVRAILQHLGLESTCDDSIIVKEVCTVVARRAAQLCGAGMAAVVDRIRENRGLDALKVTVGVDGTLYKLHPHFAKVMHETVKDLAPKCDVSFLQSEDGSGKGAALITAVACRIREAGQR

MDA-MB-231 [2] = test: Induction of apoptosis in human MDA-MB-231 cells assessed as decrease in Caspase 3 level by Western blotting analysis; assay type: functional, cell-based; conditions: dose 0.5-2 µM
MDA-MB-231 [3] = test: Induction of apoptosis in human MDA-MB-231 cells assessed as increase in total apoptotic cells at 0.5 to 2 uM by annexin-V/PI double staining based flow cytometric analysis; assay type: functional, cell-based; conditions: dose 0.5-2 µM
Mitochondrial membrane = test: […] in human MDA-MB-231 cells at 0.5 uM by JC-1 fluorescent probe based flow cytometric analysis (reference value: 2.56 %)
HT-1080 = test: Antiproliferative activity against human HT-1080 cells assessed as inhibition of cell growth incubated for 48 hrs by CCK-8 assay; assay type: functional, cell-based; conditions: HT-1080, 48 h
LoVo = test: Antiproliferative activity against human LoVo cells assessed as inhibition of cell proliferation incubated for 1 day by CCK-8 assay; assay type: functional, cell-based; conditions: 24 h
MDA-MB-231 [4] = test: Induction of apoptosis in human MDA-MB-231 cells assessed as upregulation of Bax level by Western blotting analysis; assay type: functional, cell-based; conditions: dose 0.5-2 µM
Tubulin (Homo sapiens) [5] = molecular target: T2, Tubulin (Homo sapiens) (UniProt P68371+Q9H4B7+P0DPH7+P68366+Q13509+Q71U36+P04350+Q3ZCM7+P07437+P68363+Q9BQE3+Q6PEY2+Q13885+Q9BVA1+Q9BUF5); test: Disruption of microtubule network in human MDA-MB-231 cells assessed as point-like fiber structure at 1 to 2 uM incubated for 24 hrs by DAPI staining based fluorescence microscopic analysis; assay type: cell-based; conditions: dose 1-2 µM
MDA-MB-231 [6] = test: Induction of apoptosis in human MDA-MB-231 cells assessed as fragmented bright nuclei at 0.5 to 2 uM incubated for 24 hrs by Hoechst 33342 staining based fluorescence microscopic analysis; assay type: functional, cell-based; conditions: dose 0.5-2 µM
MDA-MB-231 [7] = test: Induction of apoptosis in human MDA-MB-231 cells assessed as increase in total apoptotic cells by annexin-V/PI double staining based flow cytometric analysis; assay type: functional, cell-based; conditions: dose 0.5-2 µM
[8] = molecular target: T3, Hexokinase-2 (Homo sapiens) (UniProt P52789); test: Non-competitive inhibition of human HK2 transfected in Escherichia coli BL21 (DE) assessed as constant Km with decrease in Vmax at 0.25 to 4 uM using ATP as substrate by Lineweaver-Burk plot analysis; conditions: dose 0.25-4 µM
T3 sequence (whole entry): T1 sequence (P52789 whole entry)

MDA-MB-231 [9] = test: Induction of ROS generation in human MDA-MB-231 cells assessed as increase in green fluorescence at 2 uM incubated for 24 hrs by DCFH-DA staining based flow cytometric analysis (reference value: 62.3 %); assay type: functional
Tubulin (Homo sapiens) [10] = molecular target: T2, Tubulin (Homo sapiens); test: Disruption of microtubule network in human MDA-MB-231 cells assessed as atrophy fiber structure at 1 to 2 uM incubated for 24 hrs by DAPI staining based fluorescence microscopic analysis; assay type: cell-based; conditions: dose 1-2 µM
Tubulin (Homo sapiens) [11] = molecular target: T2, Tubulin (Homo sapiens); test: Disruption of microtubule network in human MDA-MB-231 cells assessed as disorganized microtubule network at 1 to 2 uM incubated for 24 hrs by DAPI staining based fluorescence microscopic analysis; assay type: cell-based; conditions: dose 1-2 µM
MDA-MB-231 [12] = test: Induction of apoptosis in human MDA-MB-231 cells assessed as decrease in HIF-1a level by Western blotting analysis; assay type: functional, cell-based; conditions: dose 0.5-2 µM
SW1990 = test: Antiproliferative activity against human SW1990 cells assessed as inhibition of cell growth incubated for 48 hrs by CCK-8 assay; assay type: functional, cell-based; conditions: SW1990, 48 h
MDA-MB-231 [13] = test: Induction of apoptosis in human MDA-MB-231 cells assessed as nuclear shrinkage at 0.5 to 2 uM incubated for 24 hrs by Hoechst 33342 staining based fluorescence microscopic analysis; assay type: functional, cell-based; conditions: dose 0.5-2 µM
SW480 = test: Antiproliferative activity against human SW480 cells assessed as inhibition of cell growth incubated for 48 hrs by CCK-8 assay; assay type: functional, cell-based; conditions: SW480, 48 h
MDA-MB-231 [14] = test: Induction of cell cycle arrest in human MDA-MB-231 cells assessed as increased proportion of cells at S phase at 0.5 to 2 uM by flow cytometric analysis; assay type: functional, cell-based; conditions: dose 0.5-2 µM
HCT-116 [15] = test: Antiproliferative activity against human HCT-116 cells assessed as inhibition of cell growth incubated for 48 hrs by CCK-8 assay; assay type: functional, cell-based; conditions: HCT-116, 48 h
MDA-MB-231 [16] = test: Induction of morphological changes in human MDA-MB-231 assessed as cell rounding at 0.5 to 2 uM incubated for 48 hrs by microscopic analysis; assay type: functional, cell-based; conditions: dose 0.5-2 µM
HCT-116 [17] = test: Antiproliferative activity against human HCT-116 cells assessed as inhibition of cell proliferation incubated for 3 days by CCK-8 assay; assay type: functional, cell-based; conditions: HCT-116, 72 h
MDA-MB-231 [18] = test: Induction of ROS generation in human MDA-MB-231 cells assessed as increase in green fluorescence at 1 uM incubated for 24 hrs by DCFH-DA staining based flow cytometric analysis (reference value: 62.3 %); assay type: functional
MDA-MB-231 [19] = test: Induction of ROS generation in human MDA-MB-231 cells assessed as increase in green fluorescence incubated for 24 hrs by DCFH-DA staining based flow cytometric analysis relative to control; assay type: functional, cell-based; conditions: dose 0.5-2 µM

IC50 (MDA-MB-231 [1]): 1640 nM
IC50 (Hexokinase-2): 1560 nM
Activity (Mitochondrial membrane): 5.5%
IC50 (HT-1080): 872 nM
IC50 (LoVo): 1170 nM
Activity (Tubulin (Homo sapiens) [5]): Active
inhibition [8]: Active
Activity (Tubulin (Homo sapiens) [10]): Active
Activity (Tubulin (Homo sapiens) [11]): Active
IC50 (SW1990): 927 nM
IC50 (SW480): 687 nM
IC50 (HCT-116 [15]): 512 nM
IC50 (HCT-116 [17]): 393 nM
SMILES: O=C(/C=C/c1cn(S(=O)(=O)c2ccc([N+](=O)[O-])cc2)c2ccc(N3CCOCC3)cc12)c1cccnc1
Activity (MDA-MB-231 [2]): Dose-dependent-effect
Activity (MDA-MB-231 [3]): Time-dependent-effect
Activity (MDA-MB-231 [4]): Dose-dependent-effect
Activity (MDA-MB-231 [6]): Active
Activity (MDA-MB-231 [7]): Dose-dependent-effect
Activity (MDA-MB-231 [9]): 92.8%
Activity (MDA-MB-231 [12]): Dose-dependent-effect
Activity (MDA-MB-231 [13]): Active
Activity (MDA-MB-231 [14]): Active
Activity (MDA-MB-231 [16]): Active
Activity (MDA-MB-231 [18]): 90.4%
Activity (MDA-MB-231 [19]): Dose-dependent-effect
